In PubChem BioAssay (NCI):
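Interpolation was linear, between the two tested concentrations surrounding the appropriate level; five concentrations were tested over 48 hours in 96-well plates. GI50 is the concentration that inhibits growth by half. TGI: total growth inhibition.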

Assays:
Test in all cases: NCI tumour cell line growth inhibition, 48 h
[1] = tested on: SNB-19 CNS
[2] = tested on: RXF 393 renal
[3] = tested on: DU-145 prostate
[4] = tested on: SK-MEL-28 melanoma
[5] = tested on: SF-539 CNS
[6] = tested on: NCI-H460 lung
[7] = tested on: LOX IMVI melanoma
[8] = tested on: HL-60(TB) leukemia
[9] = tested on: SF-295 CNS
[10] = tested on: NCI-H23 lung
[11] = tested on: OVCAR-8 ovarian
[12] = tested on: SR leukemia
[13] = tested on: OVCAR-5 ovarian
[14] = tested on: PC-3 prostate
[15] = tested on: KM12 colon
[16] = tested on: NCI-H226 lung
[17] = tested on: OVCAR-4 ovarian
[18] = tested on: SK-MEL-2 melanoma
[19] = tested on: K-562 leukemia
[20] = tested on: SK-MEL-5 melanoma
[21] = tested on: RPMI-8226 leukemia
[22] = tested on: UACC-257 melanoma
[23] = tested on: MDA-MB-231 breast
[24] = tested on: U251 CNS
[25] = tested on: SW-620 colon

In the case of C=C1C(=O)O[C@H]2[C@H]1CC/C(COC(=O)CCCCC(=O)OC/C1=C/CC[C@@]3(C)O[C@H]3[C@H]3OC(=O)C(=C)[C@@H]3CC1)=C\CC[C@@]1(C)O[C@@H]21, the GI50 [1] is reported as 5.99 µM, the TGI [1] is reported as > 100 µM and the GI50 [2] is reported as 0.967 µM. The TGI [2] was 2.31 µM, the GI50 [3] was 3.09 µM and the TGI [3] was > 100 µM. The GI50 [4] was 2.85 µM, the TGI [4] was > 100 µM and the GI50 [5] was 2.01 µM. The TGI [5] was 4.96 µM, the GI50 [6] was 3.52 µM and the TGI [6] was 25.5 µM. The GI50 [7] was 1.45 µM, the TGI [7] was 2.9 µM and the GI50 [8] was 0.722 µM. For the same compound, the TGI [8] was 3.94 µM, the GI50 [9] was 6.32 µM and the TGI [9] was > 100 µM. For the same compound, the GI50 [10] was 2.76 µM, the TGI [10] was 14 µM and the GI50 [11] was 2.76 µM. For the same compound, the TGI [11] was 11 µM, the GI50 [12] was 0.584 µM and the TGI [12] was > 100 µM. The GI50 [13] was 2.32 µM, the TGI [13] was 5.94 µM and the GI50 [14] was 2.43 µM. It also gave a TGI [14] of 7.46 µM, a GI50 [15] of 2.94 µM and a TGI [15] of 12.4 µM. The GI50 [16] was 1.9 µM, the TGI [16] was 4.36 µM and the GI50 [17] was 3.01 µM. The TGI [17] was > 100 µM, the GI50 [18] was 3.39 µM and the TGI [18] was 75.6 µM. The GI50 [19] was 1.87 µM, the TGI [19] was > 100 µM and the GI50 [20] was 2.6 µM. The TGI [20] was 7.73 µM, the GI50 [21] was 1.81 µM and the TGI [21] was 5.59 µM. For the same compound, the GI50 [22] was 1.82 µM, the TGI [22] was 4.4 µM and the GI50 [23] was 1.66 µM. For the same compound, the TGI [23] was 3.57 µM, the GI50 [24] was 2.58 µM and the TGI [24] was 8.91 µM. It also gave a GI50 [25] of 1.17 µM.
